Source: PubChem BioAssay AID2060616 (Molecular Pharmacology Branch, DTP, NCI, 2025)
“And” between values parts separate entries of the source, which are not always exact repeats. Identical values can stand only once.

System: 377384-186-R-J1-PDC complex spheroid viability
Assay: Anticancer human tumor 377384-186-R-J1-PDC patient-derived pancreatic carcinoma cell line growth inhibition [CLK]
Details: for viability, T/C: stronger effect = lower value
Outline: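 Multi-cell-type spheroids combined patient-derived tumor cells with HUVEC endothelial cells and human mesenchymal stem cells. Paired agents were dosed in half-log steps down from about clinical Cmax, or from 10 microM where Cmax was unknown.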
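Note: spheroids exposed to agents for 7 days before reading.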
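Throughout, for viability, T/C: luminescence signal used as a stand-in for viable cells.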

CC1COCCN1c1cc(C2(S(C)(=N)=O)CC2)nc(-c2ccnc3[nH]ccc23)n1 (centres undefined) + CN1CCN(c2cc(C(=O)Nc3cc4cc(-c5cnn(C)c5)ccc4cn3)ccn2)CC1
IC50 (curve of first compound, second compound 0.0316 µM): 2.16 µM | IC50 (curve of first compound, second compound 0.1 µM): 1.84 µM | IC50 (curve of first compound, second compound 0.316 µM): < 0.0316 µM | IC50 (curve of first compound, second compound 1 µM): < 0.0316 µM | IC50 (curve of first compound, second compound 3.16 µM): < 0.0316 µM | IC50 (curve of first compound, second compound 10 µM): < 0.0316 µM | viability, T/C (second compound 0.0316 µM, first compound 0.0316 µM): 97.6% | viability, T/C (second compound 0.0316 µM, first compound 0.1 µM): 102% | viability, T/C (second compound 0.0316 µM, first compound 0.316 µM): 97.8% | viability, T/C (second compound 0.0316 µM, first compound 1 µM): 77.3% | viability, T/C (second compound 0.0316 µM, first compound 3.16 µM): 36.7% | viability, T/C (second compound 0.0316 µM, first compound 10 µM): 19.1% | viability, T/C (second compound 0.1 µM, first compound 0.0316 µM): 110% | viability, T/C (second compound 0.1 µM, first compound 0.1 µM): 108% | viability, T/C (second compound 0.1 µM, first compound 0.316 µM): 95.5% | viability, T/C (second compound 0.1 µM, first compound 1 µM): 69.1% | viability, T/C (second compound 0.1 µM, first compound 3.16 µM): 33.1% | viability, T/C (second compound 0.1 µM, first compound 10 µM): 17.2% | viability, T/C (second compound 0.316 µM, first compound 0.0316 µM): 27% | viability, T/C (second compound 0.316 µM, first compound 0.1 µM): 32% | viability, T/C (second compound 0.316 µM, first compound 0.316 µM): 24.1% | viability, T/C (second compound 0.316 µM, first compound 1 µM): 24.8% | viability, T/C (second compound 0.316 µM, first compound 3.16 µM): 14.1% | viability, T/C (second compound 0.316 µM, first compound 10 µM): 9.42% | viability, T/C (second compound 1 µM, first compound 0.0316 µM): 1.04% | viability, T/C (second compound 1 µM, first compound 0.1 µM): 1.24% | viability, T/C (second compound 1 µM, first compound 0.316 µM): 1.39% | viability, T/C (second compound 1 µM, first compound 1 µM): 1.11% | viability, T/C (second compound 1 µM, first compound 3.16 µM): 0.85% | viability, T/C (second compound 1 µM, first compound 10 µM): 0.48% | viability, T/C (second compound 3.16 µM, first compound 0.0316 µM): 0.45% | viability, T/C (second compound 3.16 µM, first compound 0.1 µM): 0.34% | viability, T/C (second compound 3.16 µM, first compound 0.316 µM): 0.48% | viability, T/C (second compound 3.16 µM, first compound 1 µM): 0.44% | viability, T/C (second compound 3.16 µM, first compound 3.16 µM): 0.69% | viability, T/C (second compound 3.16 µM, first compound 10 µM): 0.65% | viability, T/C (second compound 10 µM, first compound 0.0316 µM): 0.51% | viability, T/C (second compound 10 µM, first compound 0.1 µM): 0.45% | viability, T/C (second compound 10 µM, first compound 0.316 µM): 1.23% | viability, T/C (second compound 10 µM, first compound 1 µM): 0.54% | viability, T/C (second compound 10 µM, first compound 3.16 µM): 1.37% | viability, T/C (second compound 10 µM, first compound 10 µM): 0.58%

O=C(c1cc(Cc2n[nH]c(=O)c3ccccc23)ccc1F)N1CCN(C(=O)C2CC2)CC1
viability, T/C (compound 0.0316 µM): 75.9% and 81.2% | viability, T/C (compound 0.1 µM): 78.6% and 74% | viability, T/C (compound 0.316 µM): 73.8% and 82.2% | viability, T/C (compound 1 µM): 74.3% and 63.9% | viability, T/C (compound 3.16 µM): 65.9% and 51.8% | viability, T/C (compound 10 µM): 43.2% and 39% | IC50 (curve of compound): 7.1 µM and 3.22 µM
